In publication PMC9448371, “Synthesis and biological activity evaluation of 3-(hetero) arylideneindolin-2-ones as potential c-Src inhibitors” (Journal of Enzyme Inhibition and Medicinal Chemistry, 2022):
Like-named read-outs stand apart in the source and are kept apart here.

What was measured:
c-Src = molecular target: T1, c-Src (Homo sapiens, UniProt P12931); assay: c-Src kinase inhibition assay (ADP-Glo Kinase Assay); format: biochemical; settings: for IC50: 100 μM ATP, read-out: ID50 (the source's name); for Ki: calculated from ID50 assuming fully ATP-competitive inhibition
T1 construct: His6 (N); purchased Merck-Millipore 14–326
T1 sequence (P12931 whole entry): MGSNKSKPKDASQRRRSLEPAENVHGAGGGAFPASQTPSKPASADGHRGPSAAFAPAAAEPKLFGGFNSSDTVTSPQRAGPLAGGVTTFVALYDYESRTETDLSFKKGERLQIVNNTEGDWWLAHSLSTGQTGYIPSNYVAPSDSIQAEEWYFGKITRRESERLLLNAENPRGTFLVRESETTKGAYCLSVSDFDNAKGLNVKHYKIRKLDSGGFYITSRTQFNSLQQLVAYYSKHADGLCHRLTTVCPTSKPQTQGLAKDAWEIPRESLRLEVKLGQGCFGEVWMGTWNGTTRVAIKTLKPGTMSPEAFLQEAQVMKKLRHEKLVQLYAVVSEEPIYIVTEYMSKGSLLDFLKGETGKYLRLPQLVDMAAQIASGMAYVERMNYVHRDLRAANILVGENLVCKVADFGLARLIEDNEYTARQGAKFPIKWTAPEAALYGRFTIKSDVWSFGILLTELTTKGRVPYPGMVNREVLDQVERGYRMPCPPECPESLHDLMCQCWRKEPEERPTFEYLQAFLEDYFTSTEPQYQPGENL
Protocol: To avoid peptide adsorption to the plastic surface, protein low-binding tubes were used. ADP-Glo Kinase Assay (Promega) was then used to detect kinase activity accordingly with manufacturer’s instruction with minor modifications. In details, reactions were transferred to white 384 well-plates and stopped by adding 10 µL of ADP-Glo Reagent (Promega) for 50 min at rt. 20 μL of Detection Reagent (Promega) was then added for 30 min and the reaction read using GloMax Discover microplate reader (Promega). Data were plotted using GraphPad Prism 5.0. […] Compounds tested were assumed to act as fully ATP-competitive inhibitors. Therefore, Ki values were calculated accordingly to Equation (2).

[1] = 10 µM compound, Table 3, tested as E/Z mixtures
[2] = 100 µM compound, Table 3, tested as E/Z mixtures, read-out: % Inhibition 100 µM
[3] = 100 μM compound, in-house collection screen, read-out: % Inhibition Src (100 μM)
[4] = 100 µM compound, Table 3, tested as E/Z mixtures, 100 µM
[5] = 100 µM compound, Table 2, read-out: % Inhibition 100 µM

O=C1Nc2cc(Cl)ccc2C1=Cc1ccc(OCc2ccc(C(=O)O)cc2)cc1 [Compound 47, 4-((4-((6-chloro-2-oxoindolin-3-ylidene)methyl)phenoxy)methyl)benzoic acid]
inhibition at 10 µM (c-Src; [1]): 63.4 ± 1.06%
% Inhibition 100 µM (c-Src; 100 µM compound, Table 3, tested as E/Z mixtures, listed as C00042, 100 µM): 93.88 ± 0.58%
inhibition at 100 µM (c-Src; [2]): 94%
IC50 (c-Src; Table 3): 5.31 µM
Ki (c-Src; Table 3): 3.58 µM

O=C(Nc1ccccc1)Nc1ccc(/C=C2\C(=O)Nc3ccccc32)cc1 [Compound 9]
inhibition at 100 µM (c-Src; [3]): 84%

O=C1Nc2cc(Cl)ccc2C1=Cc1ccc(-c2ccccc2)s1 [Compound 48, 6-chloro-3-((5-phenylthiophen-2-yl)methylene)indolin-2-one]
inhibition at 10 µM (c-Src; [1]): 12.8 ± 1.32%
inhibition at 100 µM (c-Src; [2]): 87.7 ± 3.04%
melting point: 233 to 234 °C

O=C1Nc2cc(Cl)ccc2C1=Cc1ccc(OCc2ccccc2)cc1 [Compound 37, 3–(4-(benzyloxy)benzylidene)-6-chloroindolin-2-one]
inhibition at 10 µM (c-Src; [1]): 16.9 ± 13.9%
inhibition at 100 µM (c-Src; [2]): 84.27 ± 0.82%
melting point: 239 to 240 °C (dec.)

COc1ccc(-c2nc3n(n2)CC(c2ccccc2)=NN3)cc1 [Compound 14]
% Inhibition Src (100 μM) (c-Src; 100 μM compound, in-house collection screen): did not affect the enzyme activity

O=C1Nc2cc(Cl)ccc2C1=Cc1ccc(OCC2CC2)cc1 [Compound 45, 6-Chloro-3–(4-(cyclopropylmethoxy)benzylidene)indolin-2-one]
inhibition at 10 µM (c-Src; [1]): 14.4 ± 2.09%
% Inhibition 100 µM (c-Src; [4]): almost inactive
inhibition at 100 µM (c-Src; [2]): 34.4 ± 13.3%
melting point: 231 to 232 °C

O=C(O)COc1ccc(C=C2C(=O)Nc3cc(Cl)ccc32)cc1 [Compound 46, 2–(4-((6-Chloro-2-oxoindolin-3-ylidene)methyl)phenoxy)acetic acid]
inhibition at 10 µM (c-Src; [1]): 0%
% Inhibition 100 µM (c-Src; 100 µM compound, Table 3, tested as E/Z mixtures, listed as C00041, 100 µM): 70.56 ± 4.80%
inhibition at 100 µM (c-Src; [2]): 70%
melting point: 197 °C (dec.)

NC(=O)c1cc2cccc(-c3ccccc3)c2[nH]1 [Compound 3]
inhibition at 100 µM (c-Src; [3]): 34.8%

COc1cc2c(cc1OC)C(c1ccc(OC(C)=O)cc1)CC(=O)N2 (stereo not shown) [Compound 12]
inhibition at 100 µM (c-Src; [3]): 40%

O=C1/C(=C\C=C\c2ccc(-c3ccccc3)cc2)c2ccccc2N1O [Compound 23]
inhibition at 10 µM (c-Src; 10 µM compound, Table 2): 22.8 ± 2.94%
inhibition at 100 µM (c-Src; [5]): 57.4 ± 6.31%

O=C1/C(=C\c2ccc(-c3ccccc3)cc2)c2ccccc2N1O [Compound 7]
inhibition at 100 µM (c-Src; [3]): 77.3%

CC(=O)c1cccc(-c2nc3n(n2)CC(c2ccccc2)=NN3)c1 [Compound 13]
inhibition at 100 µM (c-Src; [3]): 90%
IC50 (c-Src; Table 1): 50 µM

O=C1Nc2cc(Cl)ccc2C1=Cc1ccc(O)cc1 [Compound 35, 6-chloro-3–(4-hydroxybenzylidene)indolin-2-one]
inhibition at 10 µM (c-Src; [1]): 37.9 ± 0.35%
inhibition at 100 µM (c-Src; [2]): 86.9 ± 2.5%
IC50 (c-Src; Table 3): > 10 µM
melting point: 330 to 331 °C (dec.)

CN(C)c1nsc2c1C(=O)c1ccccc1C2=O [Compound 10]
% Inhibition Src (100 μM) (c-Src; 100 μM compound, in-house collection screen, 100 µM): 43%
% Inhibition Src (100 μM) (c-Src; 100 μM compound, in-house collection screen, listed as C00004, 100 µM): 43.5%

NC(=O)Nc1ccn([C@@H]2O[C@H](CO)CC2(F)F)c(=O)n1 [Compound 6]
inhibition at 100 µM (c-Src; [3]): 10.3%

O=C1Nc2cc(Cl)ccc2C1=Cc1cccc(Oc2ccccc2)c1 [Compound 38, 6-chloro-3–(3-phenoxybenzylidene)indolin-2-one]
inhibition at 10 µM (c-Src; [1]): 31.5 ± 3.16%
inhibition at 100 µM (c-Src; [2]): 53.6 ± 12.9%
melting point: 188 to 189 °C

O=C(Nc1ccccc1)Nc1ccc(/C=C2\C(=O)N(O)c3ccccc32)cc1 [Compound 8]
inhibition at 100 µM (c-Src; [3]): 83.2%
IC50 (c-Src; Table 1): 12.5 µM

COC(=O)c1ccc(COc2ccc(C=C3C(=O)Nc4cc(Cl)ccc43)cc2)cc1 [Compound 44, Methyl-4-((4-((6-chloro-2-oxoindolin-3-ylidene)methyl)phenoxy)methyl)benzoate]
inhibition at 10 µM (c-Src; [1]): 41 ± 10.3%
% Inhibition 100 µM (c-Src; [4]): good activity
inhibition at 100 µM (c-Src; [2]): 92.1 ± 3.84%
melting point: 201 to 202 °C

O=C1c2cc(=O)c3cc(O)ccc3n2C2CCCN12 (stereo not shown) [Compound 18]
inhibition at 100 µM (c-Src; [3]): 15.5%

NC(=O)n1ccc2ccc(-c3ccccc3F)nc21 [Compound 2]
inhibition at 100 µM (c-Src; [3]): 28.6%

COc1cc2c(cc1OC)C(=Cc1ccc(-c3ccccc3)cc1)C(=O)N2 [Compound 30, 3-([1,1′-biphenyl]-4-ylmethylene)-5,6-dimethoxyindolin-2-one]
inhibition at 10 µM (c-Src; 10 µM compound, Table 2): 9.39 ± 19.2%
inhibition at 100 µM (c-Src; [5]): 42 ± 8.91%
melting point: 231 to 232 °C

COc1cc(OC)c(/C=C2/C(=O)Nc3ccccc32)c(OC)c1 [Compound 25]
inhibition at 10 µM (c-Src; 10 µM compound, Table 2): 23.1 ± 5.55%
inhibition at 100 µM (c-Src; [5]): 35.8 ± 3.69%

Cc1ccc(C2=CCNC(=O)C3C2c2ccccc2N3C)cc1 (stereo not shown) [Compound 16]
inhibition at 100 µM (c-Src; [3]): 0.6%

COc1cc2c(cc1OC)C(=Cc1cc(Br)c(O)c(Br)c1)C(=O)N2 [Compound 29, 3–(3,5-dibromo-4-hydroxybenzylidene)-5,6-dimethoxyindolin-2-one]
inhibition at 10 µM (c-Src; 10 µM compound, Table 2): 39.8 ± 3.16%
inhibition at 100 µM (c-Src; [5]): 78.6 ± 1.32%

N#Cc1ccc(C=C2C(=O)Nc3cc(Cl)ccc32)cc1 [Compound 32, 4-((6-chloro-2-oxoindolin-3-ylidene)methyl)benzonitrile]
inhibition at 10 µM (c-Src; [1]): 35.7 ± 9.66%
inhibition at 100 µM (c-Src; [2]): 89 ± 1.35%
IC50 (c-Src; Table 3): > 10 µM
melting point: 310 °C (dec.)

CCCN1CC2=C(CC(C)(C)CC2=O)N(c2ccc(C(N)=O)cc2)C1 [Compound 20]
inhibition at 100 µM (c-Src; [3]): 7.7%

NC(=O)Nc1ccn([C@H]2C[C@H](O)[C@@H](CO)O2)c(=O)n1 [Compound 5]
inhibition at 100 µM (c-Src; [3]): 1.8%

O=C1C(=Cc2cccc(Oc3ccccc3)c2)c2ccccc2N1O [Compound 22, 1-hydroxy-3–(3-phenoxybenzylidene)indolin-2-one]
inhibition at 10 µM (c-Src; 10 µM compound, Table 2): 32.1 ± 3.53%
inhibition at 100 µM (c-Src; [5]): 64.6 ± 3.8%

NC(=O)c1noc2c1CCCC2O (stereo not shown) [Compound 19]
inhibition at 100 µM (c-Src; [3]): 12.8%

O=C1Nc2ccccc2C1=Cc1ccc(-c2ccccc2)s1 [Compound 27, 3-((5-phenylthiophen-2-yl)methylene)indolin-2-one]
inhibition at 10 µM (c-Src; 10 µM compound, Table 2): 25.3 ± 9.71%
inhibition at 100 µM (c-Src; [5]): 45.6 ± 7.85%
melting point: 257 to 258 °C

O=C1/C(=C/c2ccc(-c3ccccc3)cc2)CCN1O [Compound 24]
inhibition at 10 µM (c-Src; 10 µM compound, Table 2): 34.2 ± 0.6%
inhibition at 100 µM (c-Src; [5]): 87.5 ± 7.41%

O=C1Nc2cc(Cl)ccc2C1=Cc1ccc(C(=O)O)cc1 [Compound 36, 4-((6-chloro-2-oxoindolin-3-ylidene)methyl)benzoic acid]
inhibition at 10 µM (c-Src; [1]): 4.15 ± 1.28%
% Inhibition 100 µM (c-Src; [4]): very low activity
inhibition at 100 µM (c-Src; [2]): 47.2 ± 9.33%
melting point: 271 to 272 °C (dec.)

NC(=O)n1ccc2ccc(N3CCCC3)nc21 [Compound 4]
inhibition at 100 µM (c-Src; [3]): 4%

NC(=O)n1ccc2ccc(-c3ccc(F)cc3)nc21 [Compound 1]
% Inhibition Src (100 μM) (c-Src; 100 μM compound, in-house collection screen, listed as C00001, 100 µM): 58.1%
inhibition at 100 µM (c-Src; [3]): ~58%

O=C1Nc2cc(Cl)ccc2/C1=C/c1cc(Br)c(O)c(Br)c1 [Compound 26]
inhibition at 10 µM (c-Src; 10 µM compound, Table 2): 67%
% Inhibition 10 µM (c-Src; 10 µM compound, Table 2, listed as C00026, 10 µM): 67.03 ± 0.10%
% Inhibition 100 µM (c-Src; 100 µM compound, Table 2, listed as C00026, 100 µM): 94.70 ± 0.30%
inhibition at 100 µM (c-Src; [5]): 95%
IC50 (c-Src; Table 2): 5.63 µM
Ki (c-Src; Table 2): 3.8 µM

Nc1nsc2c1C(=O)c1ccccc1C2=O [Compound 11]
inhibition at 100 µM (c-Src; [3]): 2.2%
